Source: article PMC4077706, “Lifting the Mask: Identification of New Small Molecule Inhibitors of Uropathogenic Escherichia coli Group 2 Capsule Biogenesis” (PLoS ONE, 2014)

Columns and labels:
Transporter, GABA = target: T1, Transporter, GABA (Rattus norvegicus, UniProt P23978); experiment: Radioligand binding 226400; details: 10 µM
T1 construct: Wistar Rat cerebral cortex; tissue Eurofins Panlabs 226400; host or cells: Wistar rat cerebral cortex

Bradykinin B1 = target: T2, Bradykinin B1 (Homo sapiens, UniProt P46663); type: binding; details: 10 µM
T2 construct: Human IMR-90 cells; host or cells: IMR-90 cells

[1] = target: T3, Platelet Activating Factor (PAF) (Homo sapiens, UniProt P25105); type: binding; details: 10 µM
T3 construct: Human platelets; host or cells: human platelets

Neuropeptide Y Y2 = target: T4, Neuropeptide Y Y2 (Homo sapiens, UniProt P49146); type: binding; details: 10 µM
T4 construct: Human KAN-TS cells; host or cells: KAN-TS cells

Adenosine A3 = Adenosine A3 (Homo sapiens, UniProt P0DMS8); type: binding; details: 10 µM
Tachykinin NK1 = target: T5, Tachykinin NK1 (Homo sapiens, UniProt P25103); experiment: Radioligand binding 255520; details: 10 µM
T5 construct: host or cells: CHO

Histamine H2 = Histamine H2 (Homo sapiens, UniProt P25021); experiment: Radioligand binding 239710; design: host or cells: CHO-K1 cells; details: 10 µM
[2] = target: Serotonin (5-Hydroxytryptamine) 5-HT2B (Homo sapiens, UniProt P41595); experiment: Radioligand binding 271700; design: host or cells: CHO-K1; details: 10 µM
Nicotinic Acetylcholine = experiment: Radioligand binding 258590; design: species or system human; details: 10 µM
Purinergic P2X = experiment: Radioligand binding 268700; design: species or system rabbit; details: 10 µM
Dopamine D1 = target: T6, Dopamine D1 (Homo sapiens, UniProt P21728); type: binding; details: 10 µM
T6 construct: host or cells: CHO cells

Muscarinic M3 = Muscarinic M3 (Homo sapiens, UniProt P20309); type: binding; design: host or cells: CHO-K1 cells; details: 10 µM
Adrenergic α2A = target: T7, Adrenergic α2A (Homo sapiens, UniProt P08913); experiment: Radioligand binding 203620; details: 10 µM
T7 construct: host or cells: insect Sf9 cells
Procedure: Vehicle: 1% DMSO Non-Specific Ligand: 10.0 µM Phentolamine
Incubation Buffer: 50 mM Tris-HCl, pH 7.4, 0. 5 mM Quantitation Method: Radioligand Binding
Bmax: 0.18 pmole/mg Protein *
Incubation Time/Temp: 60 minutes @ 25°C Specific Binding: 80% *
Bmax: 0.17 pmole/mg Protein *
Source: Human recombinant insect Sf9 cells Ligand: 1.0 nM [3H]
Vehicle: 1% DMSO Non-Specific Ligand: 10.0 µM WB-4101
Incubation Time/Temp: 60 minutes @ 25°C Specific Binding: 95% *
Incubation Buffer: 50 mM Tris-HCl, pH 7.4, 12.5 mM Quantitation Method: Radioligand Binding
Bmax: 4.60 pmole/mg Protein *
Source: Human recombinant CHO-K1 cells Ligand: 0.030 nM [125I] Cyanopindolol
Incubation Time/Temp: 2 hours @ 25°C Specific Binding: 95% *
Incubation Buffer: 50 mM Tris-HCl, pH 7.4, 1.4 mM Quantitation Method: Radioligand Binding
Ascorbic Acid, 0.001% BSA, 5 mM
EDTA, 1.5 mM CaCl2, 120 mM NaCl
Bmax: 0.072 pmole/mg Protein *

GABAA, Muscimol, Central = type: binding, rat; details: 10 µM
[3] = test system: K1 capsule biogenesis in E. coli UTI89; type: cell-based, Escherichia coli; details: average of at least 3 replicates ± SEM, read-out: IC50 K1 phage
Procedure: The primary assay consisted of detection of the presence and absence of the K1 capsule on the E. coli urinary tract isolate UTI89 under growth conditions with compounds from a large chemical library. The assay was conducted as previously described with the following modifications. The primary assay was conducted in 1,536-well plate format. UTI89 ΔkpsM, an isogenic K1 capsule export mutant, was included as an unencapsulated control. Tetracycline, 50 µM, was used as a negative growth control. A 1∶75 dilution of overnight cultures were made in LB broth containing 0.5% DMSO, and 3 µL of this culture was added to each plate well, and plates were incubated, inverted, at 37°C for 2 hr. […]. The plates were centrifuged briefly, and then were incubated, inverted, at 37°C for an additional 2 hr. […] Resorufin fluorescence was measured using excitation of 560 nm and emission of 590 nm, as per the manufacturer's recommendations.
Concentration-response testing (concentration range = 0.58–300 µM) was used to confirm and characterize the primary screen hits, which was necessary to determine the number of compounds advanced to secondary screens. […] The strain UTI89 ΔkpsM, a K1 capsule export mutant, was evaluated with the wild-type strain as a phage-insensitive control (mimicking 100% capsule inhibition).

[4] = test system: E. coli EV36 (K1:K-12 hybrid strain); experiment: T7 phage counter assay; type: cell-based, Escherichia coli; details: average of at least 3 replicates ± SEM
Procedure: This secondary assay was performed as previously described and was used to distinguish compounds with phage inhibitory effects from true polysaccharide capsule inhibitors. […] Thus, the presence of a capsule inhibits T7-mediated lysis. In this assay, an increase in phage-induced lysis correlates to a decrease in capsule formation. […]. […] The positive control molecule C7 (100 µM final well concentration) was used in this screen.

[5] = test system: GABAA, Flunitrazepam, Central; experiment: Radioligand binding 226600; design: species or system rat; details: 10 µM
[6] = target: Serotonin (5-Hydroxytryptamine) 5-HT3 (Homo sapiens, UniProt P46098); type: binding; design: host or cells: HEK-293; details: 10 µM
Potassium Channel hERG = Potassium Channel hERG (Homo sapiens, UniProt Q12809); details: 10 µM
Sigma σ1 = Sigma σ1 (Homo sapiens, UniProt Q99720); type: binding; details: 10 µM

T5 sequence (P25103 whole entry): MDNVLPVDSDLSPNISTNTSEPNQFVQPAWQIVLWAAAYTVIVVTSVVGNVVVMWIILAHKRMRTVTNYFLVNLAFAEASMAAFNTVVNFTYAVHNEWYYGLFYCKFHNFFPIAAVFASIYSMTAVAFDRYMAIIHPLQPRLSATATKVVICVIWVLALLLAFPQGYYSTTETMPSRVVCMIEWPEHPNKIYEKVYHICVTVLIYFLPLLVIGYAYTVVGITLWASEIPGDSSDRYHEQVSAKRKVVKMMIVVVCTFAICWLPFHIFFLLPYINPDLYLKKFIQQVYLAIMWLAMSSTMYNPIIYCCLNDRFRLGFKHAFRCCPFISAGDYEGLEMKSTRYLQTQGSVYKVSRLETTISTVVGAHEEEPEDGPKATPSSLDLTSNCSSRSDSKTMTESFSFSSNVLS
Chain of Serotonin (5-Hydroxytryptamine) 5-HT2B (P41595 whole entry): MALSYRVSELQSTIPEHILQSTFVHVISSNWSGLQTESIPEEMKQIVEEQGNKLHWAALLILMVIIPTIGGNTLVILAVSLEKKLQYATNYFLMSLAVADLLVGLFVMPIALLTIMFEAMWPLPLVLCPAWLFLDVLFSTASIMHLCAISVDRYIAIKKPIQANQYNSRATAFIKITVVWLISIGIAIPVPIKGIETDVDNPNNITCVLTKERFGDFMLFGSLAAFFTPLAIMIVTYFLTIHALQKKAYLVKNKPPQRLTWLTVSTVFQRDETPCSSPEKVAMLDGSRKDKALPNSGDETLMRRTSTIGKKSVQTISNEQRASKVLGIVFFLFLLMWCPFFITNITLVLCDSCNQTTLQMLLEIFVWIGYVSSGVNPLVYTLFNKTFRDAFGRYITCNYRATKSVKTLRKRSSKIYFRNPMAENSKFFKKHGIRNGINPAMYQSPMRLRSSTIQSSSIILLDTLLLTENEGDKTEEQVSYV
T2 sequence (P46663 whole entry): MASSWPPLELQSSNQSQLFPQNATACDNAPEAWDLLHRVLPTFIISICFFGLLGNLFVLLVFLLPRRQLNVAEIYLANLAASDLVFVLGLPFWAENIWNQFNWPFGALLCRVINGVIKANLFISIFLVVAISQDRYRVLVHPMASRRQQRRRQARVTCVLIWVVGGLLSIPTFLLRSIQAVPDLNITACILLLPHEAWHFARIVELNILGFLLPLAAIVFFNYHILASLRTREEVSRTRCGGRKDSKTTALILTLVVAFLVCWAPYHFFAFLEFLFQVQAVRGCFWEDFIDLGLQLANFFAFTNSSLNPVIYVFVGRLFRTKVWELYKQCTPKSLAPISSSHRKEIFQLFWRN
Chain of Histamine H2 (P25021 whole entry): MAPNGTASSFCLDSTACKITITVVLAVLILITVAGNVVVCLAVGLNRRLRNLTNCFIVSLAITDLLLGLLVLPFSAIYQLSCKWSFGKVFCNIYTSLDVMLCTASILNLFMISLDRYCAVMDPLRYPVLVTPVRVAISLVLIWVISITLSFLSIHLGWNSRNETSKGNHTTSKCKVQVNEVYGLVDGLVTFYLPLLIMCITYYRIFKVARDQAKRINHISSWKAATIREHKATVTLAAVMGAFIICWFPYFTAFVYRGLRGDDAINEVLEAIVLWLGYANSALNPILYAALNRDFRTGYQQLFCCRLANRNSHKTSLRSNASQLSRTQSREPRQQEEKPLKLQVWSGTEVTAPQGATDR
Chain of Adenosine A3 (P0DMS8 whole entry): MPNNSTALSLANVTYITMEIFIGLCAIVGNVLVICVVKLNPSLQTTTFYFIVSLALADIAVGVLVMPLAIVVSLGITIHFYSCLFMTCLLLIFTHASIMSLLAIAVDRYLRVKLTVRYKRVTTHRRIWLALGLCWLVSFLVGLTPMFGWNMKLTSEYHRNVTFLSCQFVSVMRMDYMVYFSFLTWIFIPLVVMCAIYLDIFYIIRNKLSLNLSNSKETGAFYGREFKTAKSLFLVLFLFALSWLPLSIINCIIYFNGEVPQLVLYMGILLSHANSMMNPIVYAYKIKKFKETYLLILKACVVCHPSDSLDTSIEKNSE
Chain of Muscarinic M3 (P20309 whole entry): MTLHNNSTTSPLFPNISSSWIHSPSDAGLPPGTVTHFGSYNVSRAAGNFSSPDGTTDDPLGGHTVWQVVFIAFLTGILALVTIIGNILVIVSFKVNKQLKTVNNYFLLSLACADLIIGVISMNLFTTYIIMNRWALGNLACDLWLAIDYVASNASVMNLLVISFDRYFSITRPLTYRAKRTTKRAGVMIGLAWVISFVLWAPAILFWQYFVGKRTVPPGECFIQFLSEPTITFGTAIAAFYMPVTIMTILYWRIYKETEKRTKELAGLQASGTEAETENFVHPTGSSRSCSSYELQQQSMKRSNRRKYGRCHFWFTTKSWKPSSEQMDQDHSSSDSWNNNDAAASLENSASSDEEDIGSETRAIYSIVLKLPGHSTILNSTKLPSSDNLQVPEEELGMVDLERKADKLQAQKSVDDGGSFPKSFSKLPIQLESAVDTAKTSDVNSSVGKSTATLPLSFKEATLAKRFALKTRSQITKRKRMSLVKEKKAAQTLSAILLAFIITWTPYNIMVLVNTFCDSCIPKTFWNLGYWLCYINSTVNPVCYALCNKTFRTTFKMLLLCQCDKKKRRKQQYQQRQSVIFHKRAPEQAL
T7 sequence (P08913 whole entry): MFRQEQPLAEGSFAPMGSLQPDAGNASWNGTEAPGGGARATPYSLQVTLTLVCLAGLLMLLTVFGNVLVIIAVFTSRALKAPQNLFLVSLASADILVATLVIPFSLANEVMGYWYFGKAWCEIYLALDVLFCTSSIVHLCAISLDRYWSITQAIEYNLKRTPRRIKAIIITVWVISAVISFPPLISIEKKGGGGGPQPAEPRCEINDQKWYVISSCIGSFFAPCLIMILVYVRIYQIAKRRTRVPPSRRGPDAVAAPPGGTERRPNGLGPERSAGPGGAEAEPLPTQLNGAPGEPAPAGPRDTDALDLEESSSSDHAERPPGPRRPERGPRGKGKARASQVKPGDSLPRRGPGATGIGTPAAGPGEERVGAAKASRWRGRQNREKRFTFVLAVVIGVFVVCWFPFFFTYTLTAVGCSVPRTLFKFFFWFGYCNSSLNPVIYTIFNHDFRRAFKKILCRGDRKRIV
Chain of Potassium Channel hERG (Q12809 whole entry): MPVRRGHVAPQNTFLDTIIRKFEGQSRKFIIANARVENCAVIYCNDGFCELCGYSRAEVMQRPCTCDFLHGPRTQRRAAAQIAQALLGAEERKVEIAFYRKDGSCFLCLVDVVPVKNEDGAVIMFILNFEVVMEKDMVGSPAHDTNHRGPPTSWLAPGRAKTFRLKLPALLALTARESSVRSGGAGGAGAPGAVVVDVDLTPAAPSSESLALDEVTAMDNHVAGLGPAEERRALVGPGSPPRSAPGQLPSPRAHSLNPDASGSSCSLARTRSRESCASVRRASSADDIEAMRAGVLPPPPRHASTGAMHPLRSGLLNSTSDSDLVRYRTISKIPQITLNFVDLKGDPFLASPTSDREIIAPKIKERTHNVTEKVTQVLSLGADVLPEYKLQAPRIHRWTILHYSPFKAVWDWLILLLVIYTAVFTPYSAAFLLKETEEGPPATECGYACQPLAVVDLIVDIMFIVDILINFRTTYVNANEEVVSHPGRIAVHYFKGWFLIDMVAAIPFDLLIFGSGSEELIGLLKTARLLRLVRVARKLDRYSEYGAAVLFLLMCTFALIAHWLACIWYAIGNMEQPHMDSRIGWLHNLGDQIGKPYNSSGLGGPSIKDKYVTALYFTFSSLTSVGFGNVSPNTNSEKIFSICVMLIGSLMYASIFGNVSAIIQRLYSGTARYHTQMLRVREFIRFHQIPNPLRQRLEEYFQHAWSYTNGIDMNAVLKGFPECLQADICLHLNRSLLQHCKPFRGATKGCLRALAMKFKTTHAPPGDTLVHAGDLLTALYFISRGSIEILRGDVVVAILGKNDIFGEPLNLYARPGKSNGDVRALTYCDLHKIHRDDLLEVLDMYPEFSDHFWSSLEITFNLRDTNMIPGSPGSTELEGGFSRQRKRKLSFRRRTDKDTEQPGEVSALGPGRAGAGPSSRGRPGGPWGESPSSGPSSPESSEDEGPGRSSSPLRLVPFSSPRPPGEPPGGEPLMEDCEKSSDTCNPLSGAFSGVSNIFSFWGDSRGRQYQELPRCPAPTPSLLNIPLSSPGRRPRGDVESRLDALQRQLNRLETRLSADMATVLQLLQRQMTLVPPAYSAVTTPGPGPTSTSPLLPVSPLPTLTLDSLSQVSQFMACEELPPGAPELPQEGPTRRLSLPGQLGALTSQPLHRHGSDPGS
Chain of Serotonin (5-Hydroxytryptamine) 5-HT3 (P46098 24-478): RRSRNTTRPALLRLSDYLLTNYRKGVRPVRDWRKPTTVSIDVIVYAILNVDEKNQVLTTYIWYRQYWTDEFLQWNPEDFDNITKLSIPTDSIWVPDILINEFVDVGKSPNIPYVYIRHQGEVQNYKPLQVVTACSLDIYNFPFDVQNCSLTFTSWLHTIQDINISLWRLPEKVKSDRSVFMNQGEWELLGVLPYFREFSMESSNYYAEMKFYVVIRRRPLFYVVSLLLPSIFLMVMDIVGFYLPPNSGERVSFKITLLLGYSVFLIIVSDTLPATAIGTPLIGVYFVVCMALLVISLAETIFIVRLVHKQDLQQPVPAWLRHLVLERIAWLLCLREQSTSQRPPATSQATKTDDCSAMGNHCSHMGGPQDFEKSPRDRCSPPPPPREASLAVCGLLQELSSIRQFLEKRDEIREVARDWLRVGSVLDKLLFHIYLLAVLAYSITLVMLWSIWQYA
T4 sequence (P49146 whole entry): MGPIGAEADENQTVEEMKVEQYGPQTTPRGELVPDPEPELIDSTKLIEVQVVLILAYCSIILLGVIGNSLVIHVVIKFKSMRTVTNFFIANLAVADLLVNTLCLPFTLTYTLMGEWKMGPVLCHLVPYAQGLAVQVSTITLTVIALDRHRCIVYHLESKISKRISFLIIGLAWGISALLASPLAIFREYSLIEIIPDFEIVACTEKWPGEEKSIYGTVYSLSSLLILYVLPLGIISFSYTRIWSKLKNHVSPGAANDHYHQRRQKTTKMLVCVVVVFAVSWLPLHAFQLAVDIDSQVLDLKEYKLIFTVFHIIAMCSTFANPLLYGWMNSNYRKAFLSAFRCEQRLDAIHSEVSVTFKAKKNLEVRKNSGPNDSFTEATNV

## CCOc1ccc(-c2cc(NC(=O)c3c(F)cccc3F)c(C(=O)O)s2)cc1 [DU011]
Transporter, GABA
  % Inh.: -4%
Bradykinin B1
  % Inh.: 12%
[1]
  % Inh.: -1%
Neuropeptide Y Y2
  % Inh.: -6%
Adenosine A3
  % Inh.: -5%
Tachykinin NK1
  % Inh.: 7%
Histamine H2
  % Inh.: 2%
[2]
  % Inh.: 19%
Nicotinic Acetylcholine
  % Inh.: 22%
Purinergic P2X
  % Inh.: 6%
Dopamine D1
  % Inh.: 4%
Muscarinic M3
  % Inh.: -3%
Adrenergic α2A
  % Inh.: -14%
GABAA, Muscimol, Central
  % Inh.: 4%
[3]
  IC50: 4500 ± 2500 nM
[4]
  IC50: 690 ± 780 nM
[5]
  % Inh.: 12%
[6]
  % Inh.: -7%
Potassium Channel hERG
  % Inh.: 9%
Sigma σ1
  % Inh.: 9%
